# In patent publication US20050107430A1, “Antimicrobial and antiviral compounds” (priority 2003, published 2005):
# Columns and labels:
# [1] = test system: MRSA (oxacillin/methicillin resistant S. aureus); test: NCCLS MIC/MBC microdilution, MRSA; conditions: for MBC: read at 48 hr, 10^−3 kill
# Description: (§2) Standard NCCLS (e.g., National Committee for Clinical Laboratory Standards) methods for determining MIC (e.g., minimum inhibitory concentration) and MBC (e.g., minimum bactericidal concentration) were used. 96 well micro-well plates were placed in a humid chamber and frozen at −70° C. [BBL Mueller Hinton Broth]. Drugs (e.g., antimicrobial compounds of the present invention) were added to a series of wells through 2 fold serial dilutions. 100 μl of a 2×10^−3 M solution of the respective Tx compounds was added to the first well in a series. 100 μl of the inoculum (e.g., microorganism) was added to the well. […] For example, the concentration in well 8 would be less than the concentration of the same drug in well 7. Inoculum (e.g., microorganism) that was added to the wells was prepared from 24 hour growth of an isolate on 5% sheep blood/Columbia agar plates. 5 to 10 representative colonies were then picked from the plates and added to saline and adjusted to 0.5 McFarland turbidity. Next the sample was diluted 1:100 in saline, such that 100 μl of the diluted sample contained approximately 1×10^5 microbes. 100 μl of the diluted sample was added to each well in a series of drug concentrations. Once the cells were added to the wells, the well plates were incubated at 35° C. without CO2 for 48 hrs and at this time the minimum bactericidal concentration was determined.
# (§3) The MIC of Tx-118, Tx-147, and Tx-197 for certain Staphylococcus aureus (MRSA), Pseudomonas aeruginosa, Stenotrophomonas maltophilia, and VRE Enterococcus faecalis was determined using standard NCCLS methods. The first well in each series of decreasing drug concentrations contained 1×10^−4 M of a drug. The drug was diluted by serial two fold dilutions through all 12 wells in a series. There was a final DMSO concentration of 2% in the first well and 1% in the second well, etc. Tests with Tx-118 and Tx-197 were performed in triplicate, and tests with Tx-147 were performed in duplicate.
# human fibroblasts = test: Toxicity study with human fibroblasts; assay type: cell-based
# [2] = test system: chloroquin (CQ) resistant strain of Plasmodium falciparum (Pf); test: In vitro efficacy against chloroquin resistant Plasmodium falciparum; assay type: cell-based
# Description: Tx-5 and Tx-84 were tested for in vitro efficacy against a chloroquin (CQ) resistant strain of Plasmodium falciparum (Pf). The tests were performed in triplicate at a wide variety of concentrations and evaluated for effect compared with CQ.
# Candida albicans = test: MIC, Candida albicans; assay type: cell-based
# BDF1′ mice = conditions: 35 mg/kg ip
# Enterococcus faecium = test: NCCLS MIC/MBC microdilution, Enterococcus (vancomycin sensitive); assay type: cell-based; conditions: for MBC: read at 48 hr
# Text: (§1) [BBL Mueller Hinton Broth].
# P. aeruginosa = test: NCCLS MIC/MBC microdilution, P. aeruginosa; parameters: MIC: key to the marks not given beside the values; conditions: for MIC, P. aeruginosa: Table 3, P. aeroginosa is L13 from Table 2
# [3] = test system: VRE (Vancomycin resistant Enterococci); test: NCCLS MIC/MBC microdilution, VRE; conditions: for MIC, VRE enterococcus (E. faecalis): Table 3, 24 h and 48 h same results
# Description: as §2, §3
# S. aureus = test: NCCLS MIC/MBC microdilution, S. aureus patient isolates; assay type: cell-based, Staphylococcus aureus; conditions: for MBC: read at 48 hr
# Text: as §1
# [4] = test system: Mycobacterium tuberculosis; conditions: Table 3
# [5] = test system: Stenotrophomonas maltophilia; test: NCCLS MIC/MBC microdilution, S. maltophilia; conditions: for MBC: read at 48 hr, 10^−3 kill
# Description: as §2, §3
# Mycobacterium chelonae = test: MIC, Mycobacterium chelonae; assay type: cell-based; conditions: Table 3
# [6] = test system: Vancomycin resistant S. aureus ATCC700699 and 700788 (VRSA); test: NCCLS MIC/MBC microdilution, vancomycin resistant S. aureus; assay type: cell-based, Staphylococcus aureus; conditions: for MIC, VRSA (ATCC 700699) / MIC, VRSA (ATCC 700788): Table 3, 24 h and 48 h same results; for MBC: read at 48 hr
# Text: as §1
# E. coli ATCC 25922 = test: NCCLS MIC/MBC microdilution, E. coli; assay type: cell-based; conditions: plate EC
# Text: as §1
# Fusarium = test: MIC, Fusarium; assay type: cell-based; conditions: Table 3
# Aspergillus fumigatus = test: MIC, Aspergillus fumigatus; assay type: cell-based; conditions: Table 3
# [7] = Table 3, 24 h and 48 h same results
# [8] = plate E348, Enterococcus faecium patient isolate
# [9] = plate E502, Enterococcus faecium ATCC 502806
# [10] = plate E523, Enterococcus facium patient isolate
# [11] = plate S332, S aureus patient isolate
# [12] = plate 699, VancoR S. aureus ATCC700699
# [13] = plate 788, VancoR S. aureus ATCC 700788
smiles,measurement,setting,value
"c1ccc2c(c1)ccc1c3ccc(NCCCCN4CCCCC4)cc3ccc21 [Tx-5, N-(2′-chrysenyl)-4-(1′-piperidinyl)-butane-1,4-diamine]","MIC, MRSA (methicillin resistant)",[1]; [7],1.5 to 3 µg/mL
same,bactericidal activity against Staphylococcus aureus (MRSA),"[1]; in words, Example 1",bactericidal activity
same,MIC,"[1]; plate A1, MRSA patient isolate",3/3 ug/ml
same,MBC,"[1]; plate A1, MRSA",3/3 ug/ml
same,MIC,"[1]; plate B2, MRSA patient isolate",1.5 µg/mL
same,MIC,"[1]; plate E5, MRSA patient isolate",1.5 µg/mL
same,MIC,"[1]; plate F6, MRSA patient isolate",1.5/1.5 ug/ml
same,MBC,"[1]; plate F6, MRSA",1.5/1.5 ug/ml
same,MIC,"[1]; plate G7, MRSA patient isolate",1.5 µg/mL
same,MIC,"[1]; plate H9, MRSA patient isolate",3/3 ug/ml
same,MBC,"[1]; plate H9, MRSA",3/3 ug/ml
same,MIC,"[1]; plate K12, MRSA patient isolate",3 µg/mL
same,Toxicity/human fibroblasts (IC50),human fibroblasts,6 µg/mL
same,IC50,"[2]; CQ resistant P. falciparum, in vitro, triplicate",154 µM
same,inhibitory effect against Pf,[2]; in words,weak effect
same,inhib. of Candida albicans,Candida albicans; @ 15 ug/ml,(90% inhib. @ 15 ug/ml)
same,"MIC, Candida albicans",Candida albicans; Table 3,30 µg/mL
same,"animal studies (ip), mortality",BDF1′ mice,mg/kg (<10% mort)
same,MIC,Enterococcus faecium; [8],1.5 µg/mL
same,MBC,Enterococcus faecium; [8],3 µg/mL
same,MIC,Enterococcus faecium; [9],1.5 µg/mL
same,MBC,Enterococcus faecium; [9],6 µg/mL
same,MIC,Enterococcus faecium; [10],1.5/1.5 ug/ml
same,MBC,Enterococcus faecium; [10],1.5/1.5 ug/ml
same,"MIC, P. aeruginosa",P. aeruginosa,No activity
same,MIC,"P. aeruginosa; plate 37, P. aeruginosa sensitive isolate",+++
same,MIC,"P. aeruginosa; plate ATCC, P. aeruginosa ATCC 27853",+++
same,MIC,"P. aeruginosa; plate L13, P. aeruginosaR (multi-resistant)",+++
same,"MIC, VRE enterococcus (E. faecalis)",[3],3 µg/mL
same,MIC,"[3]; plate D4, VRE patient isolate",3 µg/mL
same,MIC,S. aureus; [11],0.4 µg/mL
same,MBC,S. aureus; [11],0.7 µg/mL
same,MIC,"S. aureus; plate S520, S aureus patient isolate penicillin resistant",1.5/1.5 ug/ml
same,MBC,"S. aureus; plate S520, S aureus patient isolate",1.5/1.5 ug/ml
same,"MIC, Mycobacterium tuberculosis",[4],7 µg/mL
same,"MIC, Stenotrophomonas maltophilia",[5]; [7],24 to 48 µg/mL
same,bactericidal activity against Stenotrophomonas maltophilia,"[5]; in words, Example 1",some bactericidal activity
same,MIC,"[5]; plate C3, S. maltophilia patient isolate",48/48 ug/ml
same,MBC,"[5]; plate C3, S. maltophilia",48/48 ug/ml
same,MIC,"[5]; plate I10, S. maltophilia patient isolate",24/24 ug/ml
same,MBC,"[5]; plate I10, S. maltophilia",24/24 ug/ml
same,MIC,"[5]; plate J11, S. maltophilia patient isolate",48/48 ug/ml
same,MBC,"[5]; plate J11, S. maltophilia",48/48 ug/ml
same,"MIC, Mycobacterium chelonae",Mycobacterium chelonae,5 to 24 µg/mL
same,"MIC, VRSA (ATCC 700699)",[6],1.5 µg/mL
same,"MIC, VRSA (ATCC 700788)",[6],3.0 µg/mL
same,MIC,[6]; [12],1.5 µg/mL
same,MBC,[6]; [12],12 µg/mL
same,MIC,[6]; [13],3 µg/mL
same,MBC,[6]; [13],12 µg/mL
same,MIC,E. coli ATCC 25922,48/48 ug/ml
same,MBC,"E. coli ATCC 25922; read at 48 hr, 10^−3 kill",48/48 ug/ml
c1ccc2c3c(ccc2c1)-c1c(cc(NCCCCN2CCCCC2)c2ccccc12)C3 [Tx-112],"MIC, P. aeruginosa",P. aeruginosa,No activity
same,"MIC, VRE enterococcus (E. faecalis)",[3],210 µg/mL
same,"MIC, Fusarium",Fusarium,3.3 µg/mL
same,"MIC, VRSA (ATCC 700699)",[6],8 µg/mL
same,"MIC, VRSA (ATCC 700788)",[6],8 µg/mL
same,"MIC, Aspergillus fumigatus",Aspergillus fumigatus,6.5 µg/mL
